The term MIC denotes the lowest concentration found to suppress growth. High values mean a less susceptible organism, low ones a more susceptible organism. As a reminder, the pIC50 is the IC50 on a negative log10 scale, so that one unit is a factor of ten. In general, solubility refers to the concentration that dissolves in the medium under given conditions. High values mean a readily soluble substance, low ones a poorly soluble substance.

One data set relates to Escherichia coli. In words: Antibacterial activity against Escherichia coli AG100A […] by microdilution method. The format is functional. (In broth dilution the organism is exposed to a series of concentrations in liquid medium.)
Data set [1] relates to Staphylococcus aureus. Put plainly: Antibacterial activity against Staphylococcus aureus 29213 by microdilution method. The format is functional.
The subject of data set [2] is Staphylococcus aureus. In words: Antibacterial activity against methicillin-resistant Staphylococcus aureus 43300 by microdilution method. Format: functional.
The target in data set [3] is T1, Enoyl-[acyl-carrier-protein] reductase [NADH] FabI (Escherichia coli K-12, UniProt P0AEK4).
T1 sequence (P0AEK4 whole entry): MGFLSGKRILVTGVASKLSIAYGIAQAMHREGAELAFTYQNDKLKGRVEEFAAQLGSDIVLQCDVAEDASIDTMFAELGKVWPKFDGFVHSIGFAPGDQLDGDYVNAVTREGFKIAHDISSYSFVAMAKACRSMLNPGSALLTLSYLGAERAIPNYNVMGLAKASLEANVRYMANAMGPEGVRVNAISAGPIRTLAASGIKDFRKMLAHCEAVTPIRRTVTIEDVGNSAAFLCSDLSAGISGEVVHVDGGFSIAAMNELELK
In words: Inhibition of Escherichia coli FabI assessed as effect on NAD(P)H consumption.

Data set [4] in a line: Aqueous solubility at pH 7.4. Format: physicochemical.
Data set [5] addresses T2, Enoyl-[acyl-carrier-protein] reductase [NADPH] FabI (Staphylococcus aureus, UniProt Q6GI75).
T2 sequence (Q6GI75 whole entry): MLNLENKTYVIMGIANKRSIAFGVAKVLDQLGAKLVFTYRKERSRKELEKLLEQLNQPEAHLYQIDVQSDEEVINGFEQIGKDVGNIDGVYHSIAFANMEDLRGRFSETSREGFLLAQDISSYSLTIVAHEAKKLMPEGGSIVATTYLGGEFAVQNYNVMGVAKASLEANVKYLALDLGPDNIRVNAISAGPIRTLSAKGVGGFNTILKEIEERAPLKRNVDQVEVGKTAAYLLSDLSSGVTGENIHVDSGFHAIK
In words: Inhibition of Staphylococcus aureus FabI.

The nature of data set [6]: Aqueous solubility at pH 4.0. Format: physicochemical.

The structures appear in SMILES notation. pIC50: −log10 of the molar value. Converted amounts (≈) assume the structure as drawn.

Consider `CN(Cc1cc2ccccc2n1C)C(=O)/C=C/c1cnc2c(c1)CCC(=O)N2`, for which the MIC was not above 0.063 µg/mL in the data set with Escherichia coli, not above 0.016 µg/mL against Staphylococcus aureus [1] and 0.016 µg/mL (≈ 0.0427 µM) against Staphylococcus aureus [2]. The pIC50 in data set [3] is 6.86. The molecule also registered a solubility in data set [4] of 5.8 µg/mL (≈ 15.5 µM).
For the molecule `CCCOc1c(CN(C)C(=O)/C=C/c2cnc3c(c2)CC2(CCNCC2)C(=O)N3)cccc1OC`, the MIC in the data set on Escherichia coli is 2 µg/mL (≈ 4.18 µM); against Staphylococcus aureus [1], 0.125 µg/mL (≈ 0.261 µM); with Staphylococcus aureus [2], 0.5 µg/mL (≈ 1.04 µM). In data set [5], the pIC50 is 7.15. Also, the solubility came out at 520 µg/mL (≈ 1090 µM) in data set [4] and 700 µg/mL (≈ 1460 µM) in data set [6].
Regarding `Cc1c(CN(C)C(=O)/C=C/c2cnc3c(c2)CN(CCN2CCOCC2)C(=O)N3)sc2ccccc12`, the MIC against Escherichia coli, in the data set on Staphylococcus aureus [1] and with Staphylococcus aureus [2] was not above 0.063 µg/mL each time. In addition, the pIC50 in data set [5] was 7.59; in data set [3], 8.15. For the same molecule, the values for the solubility in data set [4] and in data set [6] were 6.1 µg/mL (≈ 12.1 µM) and more than 67 µg/mL, respectively.
Take `Cc1c(CN(C)C(=O)/C=C/c2cnc3c(c2)CC2(CCNCC2)C(=O)N3)sc2ccccc12`: the figures for the minimum inhibitory concentration (MIC) against Escherichia coli, in the data set with Staphylococcus aureus [1] and with Staphylococcus aureus [2] were not above 0.063 µg/mL, not above 0.016 µg/mL and 0.063 µg/mL (≈ 0.137 µM), respectively. Moreover, the pIC50 was 7.32 in data set [5] and 9.40 in data set [3]. Moreover, the figures for the solubility in data set [4] and in data set [6] were 4.8 µg/mL (≈ 10.4 µM) and 22 µg/mL (≈ 47.8 µM), respectively.
In the case of `Cc1c(CN(C)C(=O)/C=C/c2cnc3c(c2)CCC(=O)N3)sc2ccccc12`, the MIC is 4 µg/mL (≈ 10.2 µM) in the data set with Escherichia coli, 0.125 µg/mL (≈ 0.319 µM) with Staphylococcus aureus [1] and 0.063 µg/mL (≈ 0.161 µM) in the data set with Staphylococcus aureus [2]. Moreover, the negative-log IC50 (pIC50) in data set [5] was 7.52.
In the case of `Cc1c(CN(C)C(=O)/C=C/c2cnc3c(c2)CC2(CCN(C)CC2)C(=O)N3)sc2ccccc12`, the values for the MIC with Escherichia coli, with Staphylococcus aureus [1] and in the data set on Staphylococcus aureus [2] were not above 0.063 µg/mL, not above 0.016 µg/mL and not above 0.016 µg/mL, respectively. The values for the negative-log IC50 (pIC50) in data set [5] and in data set [3] were 7.85 and 8.62, respectively. The solubility came out at 110 µg/mL (≈ 232 µM) in data set [4] and 360 µg/mL (≈ 758 µM) in data set [6].
With `Cc1c(CN(C)C(=O)/C=C/c2cnc3c(c2)CC2(CCN(C)CC2)C(=O)N3)sc2ccc(F)cc12`, the minimum inhibitory concentration (MIC) against Escherichia coli is not above 0.063 µg/mL; against Staphylococcus aureus [1] it was not above 0.016 µg/mL; in the data set on Staphylococcus aureus [2], not above 0.016 µg/mL. Moreover, the negative logarithm of the IC50 (pIC50) in data set [5] is 7.55; in data set [3], 7.62. In addition, the solubility in data set [4] stood at 110 µg/mL (≈ 223 µM); in data set [6], 790 µg/mL (≈ 1600 µM).
Regarding `Cc1c(CN(C)C(=O)/C=C/c2cnc3c(c2)CC2(CCN(C)CC2)C(=O)N3)oc2ccccc12`, the MIC with Escherichia coli is 0.25 µg/mL (≈ 0.545 µM); against Staphylococcus aureus [1], not above 0.016 µg/mL; with Staphylococcus aureus [2], not above 0.016 µg/mL. The pIC50 in data set [5] was 7.70; in data set [3], 8.74. The solubility came to 43 µg/mL (≈ 93.8 µM) in data set [4] and 83 µg/mL (≈ 181 µM) in data set [6].
`CCCOc1c(CN(C)C(=O)/C=C/c2cnc3c(c2)CC2(CCN(C)CC2)C(=O)N3)cccc1OC`: the MIC with Escherichia coli was 4 µg/mL (≈ 8.12 µM); in the data set on Staphylococcus aureus [1], 0.031 µg/mL (≈ 0.0629 µM); with Staphylococcus aureus [2], 0.125 µg/mL (≈ 0.254 µM). The negative logarithm of the IC50 (pIC50) was 7.59 in data set [5] and 7.26 in data set [3]. Besides, the solubility in data set [4] was determined as 1000 µg/mL (≈ 2030 µM); in data set [6], 1500 µg/mL (≈ 3040 µM).
In the case of `CN(Cc1cc2ccccc2n1C)C(=O)/C=C/c1cnc2c(c1)CC1(CCNCC1)C(=O)N2`, the values for the minimum inhibitory concentration (MIC) against Escherichia coli, against Staphylococcus aureus [1] and in the data set with Staphylococcus aureus [2] were 0.5 µg/mL (≈ 1.13 µM), 0.5 µg/mL (≈ 1.13 µM) and 2 µg/mL (≈ 4.51 µM), respectively. In addition, the figures for the pIC50 in data set [5] and in data set [3] were 6.88 and 7.77, respectively. In addition, the solubility in data set [4] and in data set [6] was more than 100 µg/mL in each case.
For `Cc1c(CN(C)C(=O)/C=C/c2cnc3c(c2)CC2(CCNCC2)C(=O)N3)oc2ccccc12`, the MIC is not above 0.063 µg/mL in the data set with Escherichia coli, 0.031 µg/mL (≈ 0.0697 µM) with Staphylococcus aureus [1] and 0.031 µg/mL (≈ 0.0697 µM) against Staphylococcus aureus [2]. Further, the negative logarithm of the IC50 (pIC50) in data set [5] was 7.31; in data set [3] it was 9.15. The solubility was 100 µg/mL (≈ 225 µM) in data set [4] and 1500 µg/mL (≈ 3370 µM) in data set [6].

For the origin of these results see ChEMBL document CHEMBL1155988, “Spiro-naphthyridinone piperidines as inhibitors of S. aureus and E. coli enoyl-ACP reductase (FabI)” (Bioorg Med Chem Lett, 2009).
